# Laboratory results from US20250144067A1, “PERSONALIZED STARVATION THERAPY FOR CANCER” (Faeth Therapeutics, Inc., priority 2021, published 2025).
# Where a name gives a salt, the structure may show the parent alone.
# Experiments:
# [1] = tested on: NCI-H292 lung cancer cells; assay: FDA drug screening, complete media vs cholesterol-free media without statin (TABLE 1); assay type: cell-based, human
# [2] = tested on: NCI-H292 lung cancer cells; assay: FDA drug screening, complete media vs cholesterol-free media with simvastatin (TABLE 2); assay type: cell-based, human; settings: for Cholesterol-free media + simvastatin (0.04 μM) / Complete Media: NCI-H292 cells
# [3] = Complete minus Cholesterol-free, greater than 0 enhanced anti-cancer activity, about 0 neutral, below 0 antagonist
# [4] = NCI-H292 cells, FDA drug library screen, cholesterol-free media without statin
# [5] = NCI-H292 cells, FDA drug library screen, complete media
# [6] = FDA library drug in cholesterol-free media with simvastatin 0.04 μM
# [7] = FDA library drug in complete media
# [8] = complete media vs cholesterol-free media + simvastatin (0.04 μM), >0 enhanced anti-cancer activity, about 0 neutral, <0 antagonist
# [9] = NCI-H292 cells, cholesterol-free media without statin, FDA drug library screen
# [10] = NCI-H292 cells, complete media, FDA drug library screen
# [11] = NCI-H292 cells, cholesterol-free media without statin
# [12] = complete vs cholesterol-free media, greater than 0 enhanced anti-cancer activity, about 0 neutral, below 0 antagonists
# [13] = drug in cholesterol-free media with simvastatin 0.04 μM
# [14] = Complete minus Cholesterol-free, greater than 0 enhanced anti-cancer activity, about 0 neutral, below 0 antagonists
# [15] = NCI-H292 cells in cholesterol-free media without statin
# [16] = NCI-H292 cells in complete media
# [17] = cholesterol-free media with simvastatin 0.04 μM, FDA drug library screen (TABLE 2)
# [18] = complete media, FDA drug library screen (TABLE 2)
# [19] = complete media minus cholesterol-free media + simvastatin (0.04 μM), >0 enhanced anti-cancer activity, about 0 neutral, <0 antagonist
# [20] = complete vs cholesterol-free media, >0 enhanced anti-cancer activity, about 0 neutral, <0 antagonist
# [21] = FDA drug library screen, cholesterol-free media with simvastatin 0.04 μM
# [22] = FDA drug library screen, complete media
# [23] = Complete minus Cholesterol-free, >0 enhanced anti-cancer activity, about 0 neutral, <0 antagonist
# [24] = cholesterol-free media with simvastatin 0.04 μM, cell growth value in FDA drug screen
# [25] = complete media, cell growth value in FDA drug screen
# [26] = complete media minus cholesterol-free media + simvastatin, >0 enhanced anti-cancer activity, about 0 neutral, <0 antagonist
compound,measurement,setting,value
Cn1nnnc1SCC1=C(C(=O)[O-])N2C(=O)[C@@H](NC(=O)[C@H](O)c3ccccc3)[C@H]2SC1.[Na+] [Cefamandole (sodium)],Difference,[1]; [3],−0.12
same,Cholesterol-free,[1]; [4],1.243
same,Complete,[1]; [5],1.12
same,Cholesterol-free media + simvastatin (0.04 μM),[2]; [6],2.169
same,Complete Media,[2]; [7],1.429
same,Difference,[2]; [8],−0.74
Vonoprazan (Fumarate),Cholesterol-free,[1]; [9],1.164
same,Complete,[1]; [10],1.405
same,Difference,"[1]; complete vs cholesterol-free media, […]",0.24
same,Complete Media,[2]; [7],0.7838
same,Difference,"[2]; complete media vs cholesterol-free media + simvastatin (0.04 μM), […]",−0.27
CCC(C)(Oc1ccc(C2(c3ccc(OC(C)(CC)C(=O)O)cc3)CCCCC2)cc1)C(=O)O (centres unmarked) [Clinofibrate],Cholesterol-free,[1]; [11],1.347
same,Complete,"[1]; NCI-H292 cells, complete media",1.007
same,Difference,[1]; [12],−0.34
same,Cholesterol-free media + simvastatin (0.04 μM),[2]; [13],1.342
same,Complete Media,[2]; drug in complete media,1.081
same,Difference,[2]; [8],−0.26
COC(=O)N[C@H](C(=O)N1CCC[C@H]1c1nc(-c2ccc3c(c2)O[C@@H](c2ccccc2)n2c-3cc3cc(-c4c[nH]c([C@@H]5CCCN5C(=O)[C@@H](NC(=O)OC)C(C)C)n4)ccc32)c[nH]1)C(C)C [Elbasvir],Difference,[1]; [14],−0.70
same,Cholesterol-free,[1]; [15],1.334
same,Complete,[1]; [16],0.6346
same,Cholesterol-free media + simvastatin (0.04 μM),[2]; [17],0.9746
same,Complete Media,[2]; [18],0.9378
same,Difference,[2]; [19],−0.04
CC(=O)OCC(=O)[C@H]1CC[C@H]2[C@@H]3CCC4=CC(=O)CC[C@]4(C)[C@H]3CC[C@]12C [Deoxycorticosterone acetate],Cholesterol-free,[1]; [9],0.7412
same,Complete,[1]; [10],1.214
same,Difference,[1]; [20],0.47
same,Cholesterol-free media + simvastatin (0.04 μM),[2]; [21],0.9825
same,Complete Media,[2]; [22],0.8887
same,Difference,[2]; [8],−0.09
CO[C@H]1/C=C/O[C@@]2(C)Oc3c(C)c([O-])c4c(O)c(cc(O)c4c3C2=O)NC(=O)/C(C)=C\C=C\[C@H](C)[C@H](O)[C@@H](C)[C@@H](O)[C@@H](C)[C@H](OC(C)=O)[C@@H]1C.[Na+] [Rifamycin (sodium)],Cholesterol-free,[1]; [11],2.314
same,Complete,"[1]; NCI-H292 cells, complete media",1.878
same,Difference,[1]; [12],−0.44
same,Cholesterol-free media + simvastatin (0.04 μM),[2]; [6],1.045
same,Complete Media,[2]; [7],0.7505
same,Difference,[2]; [8],−0.29
CCn1nc(C(=O)O)c(=O)c2cc3c(cc21)OCO3 [Cinoxacin],Difference,[1]; [23],−0.05
same,Cholesterol-free,[1]; [9],0.9965
same,Complete,[1]; [10],0.951
same,Cholesterol-free media + simvastatin (0.04 μM),[2]; [24],0.9547
same,Complete Media,[2]; [25],0.9782
same,Difference,[2]; [26],0.02
CN(Cc1cnc2nc(N)nc(N)c2n1)c1ccc(C(=O)N[C@@H](CCC(=O)O)C(=O)O)cc1 [Methotrexate],Difference,[1]; [3],−0.13
same,Cholesterol-free,[1]; [4],0.225
same,Complete,[1]; [5],0.09944
same,Cholesterol-free media + simvastatin (0.04 μM),[2]; [17],0.1275
same,Complete Media,[2]; [18],0.1078
same,Difference,[2]; [19],−0.02
CN1[C@@H](CC(=O)c2ccccc2)CCC[C@H]1C[C@H](O)c1ccccc1 [Lobeline (hydrochloride)],Cholesterol-free,[1]; [9],0.6538
same,Complete,[1]; [10],1.202
same,Difference,[1]; [20],0.55
same,Cholesterol-free media + simvastatin (0.04 μM),[2]; [6],1.408
same,Complete Media,[2]; [7],1.116
same,Difference,[2]; [8],−0.29
CCn1c(=O)c2c(nc(/C=C/c3ccc(OC)c(OC)c3)n2C)n(CC)c1=O [Istradefylline],Cholesterol-free,[1]; [9],0.9821
same,Difference,[1]; [20],0.19
same,Cholesterol-free media + simvastatin (0.04 μM),[2]; [13],1.183
same,Complete Media,[2]; drug in complete media,0.9547
same,Difference,[2]; [8],−0.23
C[N+](C)(C)CCOP(=O)(O)OP(=O)([O-])OC[C@H]1O[C@@H](n2ccc(N)nc2=O)[C@H](O)[C@@H]1O [Citicoline],Cholesterol-free,[1]; [9],0.7726
same,Complete,[1]; [10],1.062
same,Difference,[1]; [20],0.29
same,Cholesterol-free media + simvastatin (0.04 μM),[2]; [21],0.6677
same,Complete Media,[2]; [22],1.557
same,Difference,[2]; [26],0.89
NC(=O)c1cccc2cn(-c3ccc([C@@H]4CCCNC4)cc3)nc12 [Niraparib],Difference,[1]; [23],−0.30
same,Cholesterol-free,[1]; [11],1.29
same,Complete,"[1]; NCI-H292 cells, complete media",0.9917
same,Cholesterol-free media + simvastatin (0.04 μM),[2]; [17],1.191
same,Complete Media,[2]; [18],1.193
same,Difference,[2]; [19],0.00
CC[C@H]1OC(=O)[C@H](C)[C@@H](O[C@H]2C[C@@](C)(OC)[C@@H](O)[C@H](C)O2)[C@H](C)[C@@H](O[C@@H]2O[C@H](C)C[C@H](N(C)C)[C@H]2O)[C@](C)(OC)C[C@@H](C)C(=O)[C@H](C)[C@@H](O)[C@]1(C)O [Clarithromycin],Difference,[1]; [14],−0.74
same,Cholesterol-free,[1]; [15],1.607
same,Complete,[1]; [16],0.8616
same,Cholesterol-free media + simvastatin (0.04 μM),[2]; [21],1.214
same,Complete Media,[2]; [22],1.064
same,Difference,[2]; [8],−0.15
C=C1CC[C@@H]2[C@](C)(CO)[C@H](O)CC[C@@]2(C)[C@@H]1C/C=C1/C(=O)OC[C@H]1O [Andrographolide],Cholesterol-free,[1]; [9],0.8912
same,Complete,[1]; [10],0.9868
same,Difference,[1]; [20],0.10
same,Cholesterol-free media + simvastatin (0.04 μM),[2]; [21],1.859
same,Difference,[2]; [19],−0.94
Tofacitinib (citrate),Difference,[1]; [23],−0.26
same,Cholesterol-free,[1]; [11],0.8106
same,Complete,"[1]; NCI-H292 cells, complete media",0.5473
same,Cholesterol-free media + simvastatin (0.04 μM),[2]; [13],0.9122
same,Complete Media,[2]; drug in complete media,0.6806
same,Difference,[2]; [8],−0.23
Nc1nc2ncc(CNc3ccc(C(=O)N[C@@H](CCC(=O)O)C(=O)O)cc3)nc2c(=O)[nH]1 [Folic acid],Cholesterol-free,[1]; [11],1.731
same,Complete,"[1]; NCI-H292 cells, complete media",1.312
same,Difference,[1]; [12],−0.42
same,Cholesterol-free media + simvastatin (0.04 μM),[2]; [13],1.118
same,Complete Media,[2]; drug in complete media,0.9443
same,Difference,[2]; [8],−0.17
CC(=O)CCCCn1c(=O)c2c(ncn2C)n(C)c1=O [Pentoxifylline],Difference,[1]; [23],−0.26
same,Cholesterol-free,[1]; [11],1.143
same,Complete,"[1]; NCI-H292 cells, complete media",0.8845
same,Cholesterol-free media + simvastatin (0.04 μM),[2]; [17],0.9442
same,Complete Media,[2]; [18],0.9268
same,Difference,[2]; [19],−0.02
COc1ccc(CN=c2[nH]c(N3CCC[C@H]3CO)ncc2C(=O)NCc2ncccn2)cc1Cl [Avanafil],Difference,[1]; [23],−0.27
same,Cholesterol-free,[1]; [11],0.9577
same,Complete,"[1]; NCI-H292 cells, complete media",0.6848
same,Cholesterol-free media + simvastatin (0.04 μM),[2]; [13],1.12
same,Complete Media,[2]; drug in complete media,0.9091
same,Difference,[2]; [8],−0.21
CC(C)(C)OC(=O)N[C@H]1CCCCC/C=C\[C@@H]2C[C@@]2(C(=O)NS(=O)(=O)C2CC2)NC(=O)[C@@H]2C[C@@H](OC(=O)N3Cc4cccc(F)c4C3)CN2C1=O [Danoprevir],Cholesterol-free,[1]; [9],0.802
same,Complete,[1]; [10],1.257
same,Difference,[1]; [20],0.45
same,Cholesterol-free media + simvastatin (0.04 μM),[2]; [17],0.8835
same,Complete Media,[2]; [18],0.8799
same,Difference,[2]; [19],0.00
O=C(O)COCCN1CCN(C(c2ccccc2)c2ccc(Cl)cc2)CC1 (centres unmarked) [Cetirizine (dihydrochloride)],Difference,[1]; [23],−0.28
same,Cholesterol-free,[1]; [11],1.185
same,Complete,"[1]; NCI-H292 cells, complete media",0.9092
same,Cholesterol-free media + simvastatin (0.04 μM),[2]; [24],0.9045
same,Complete Media,[2]; [25],0.9315
same,Difference,[2]; [26],0.03
COc1cc(NS(=O)(=O)c2ccc(N)cc2)nc(OC)n1 [Sulfadimethoxine],Cholesterol-free,[1]; [11],1.234
same,Complete,"[1]; NCI-H292 cells, complete media",0.8763
same,Difference,[1]; [12],−0.36
same,Cholesterol-free media + simvastatin (0.04 μM),[2]; [21],0.819
same,Complete Media,[2]; [22],0.9685
same,Difference,[2]; [26],0.15
CC(=C(CCOC(=O)C(C)C)SSC(CCOC(=O)C(C)C)=C(C)N(C=O)Cc1cnc(C)nc1N)N(C=O)Cc1cnc(C)nc1N (stereo in doubt) [Sulbutiamine],Cholesterol-free,[1]; [9],1.257
same,Complete,[1]; [10],1.438
same,Difference,[1]; [20],0.18
same,Cholesterol-free media + simvastatin (0.04 μM),[2]; [24],0.8359
same,Complete Media,[2]; [25],0.9183
same,Difference,[2]; [26],0.08
Cc1oc(=O)oc1CN1CCN(c2cc3c(cc2F)c(=O)c(C(=O)O)c2n3C(C)S2)CC1 (centres unmarked) [Prulifloxacin],Cholesterol-free,[1]; [9],1.111
same,Complete,[1]; [10],1.213
same,Difference,[1]; [20],0.10
same,Cholesterol-free media + simvastatin (0.04 μM),[2]; [21],0.966
same,Difference,[2]; [26],0.21
Cc1c(C)c2c(c(C)c1O)CCC(C)(CCCC(C)CCCC(C)CCCC(C)C)O2 (racemic) [DL-alpha-Tocopherol],Cholesterol-free,[1]; [9],0.7949
same,Complete,[1]; [10],1.459
same,Difference,[1]; [20],0.66
same,Cholesterol-free media + simvastatin (0.04 μM),[2]; [21],1.155
same,Complete Media,[2]; [22],1.072
same,Difference,[2]; [8],−0.08
N=C(N)NC(=O)Cc1c(Cl)cccc1Cl [Guanfacine (hydrochloride)],Cholesterol-free,[1]; [9],0.9809
same,Complete,[1]; [10],1.601
same,Difference,[1]; [20],0.62
same,Cholesterol-free media + simvastatin (0.04 μM),[2]; [21],1.401
same,Complete Media,[2]; [22],1.965
same,Difference,[2]; [26],0.56
C[C@@H]1C/C=C/C=C/C=C/C=C/[C@H](O[C@@H]2O[C@H](C)[C@@H](O)[C@H](N)[C@@H]2O)C[C@@H]2O[C@](O)(C[C@@H](O)C[C@H]3O[C@@H]3/C=C/C(=O)O1)C[C@H](O)[C@H]2C(=O)O [Natamycin],Difference,[1]; [3],−0.07
same,Cholesterol-free,[1]; [4],1.061
same,Complete,[1]; [5],0.9893
same,Cholesterol-free media + simvastatin (0.04 μM),[2]; [21],1.218
same,Complete Media,[2]; [22],1.127
same,Difference,[2]; [8],−0.09
